Measurements as given in patent US5594019A, “6-heterocyclic-4-amino-1,3,4,5-tetrahydrobenz[CD]indoles” (Eli Lilly and Company, priority 1994, dated 1997).
Like-named read-outs stand apart in the source and are kept apart here. Blank lines part the entries; values can stand above or below the compound they belong to.

Experiments:
5-HT1D receptor = target: T1, 5-HT1D receptor (Bos taurus, UniProt F1MGM3); experiment: In vitro binding activity at the 5-HT1D receptor, inhibition of [3H]5-HT binding to caudate nuclei membranes; settings: [3H]5-HT (1.7-1.9 nM), bovine caudate membranes, 8-OH-DPAT and mesulergine 100 nM masking, 10 minutes at 37° C., pH 7.4
T1 construct: Bovine brains were obtained and the caudate nuclei were dissected out; from tissue; host or cells: bovine caudate nuclei (membranes)
Experimental: The affinities of certin of the compounds of Formula 1 at the central 5-HT1D binding sites were determined using a modification of the binding assay described by Heuring and Peroutka, J. Neurosci., 7, 894 (1987). Bovine brains were obtained and the caudate nuclei were dissected out and frozen at -70° C. until the time that the membranes were prepared for the binding assays. At that time the tissues were homogenized in 40 volumes of ice-cold Tris-HCl buffer (50 mM, pH 7.4 at 22° C.) with a Techmar Tissumizer (setting 65 for 15 seconds), and the homogenate was centrifuged at 39,800xg for 10 minutes. The resulting pellet was then resuspended in the same buffer, and the centrifugation and resuspension process was repeated three additional times to wash the membranes. Between the second and third washes the resuspended membranes were incubated for 10 minutes at 37° C. to facilitate the removal of endogenous 5-HT. The final pellet was resuspended in Tris buffer to a concentration of 25 mg of original tissue wet weight/ml for use in the binding assay. […] The assay tubes were incubated for 10 minutes at 37° C., and the contents were then rapidly filtered through GF/B filters (pretreated with 0.5% polyethylenimine), followed by four 1 ml washes with ice-cold buffer. The radioactivity trapped by the filters was quantitated by liquid scintillation spectrometry, and specific [^3 H]5-HT binding to the 5-HT1D sites was defined as the difference between [^3 H]5-HT bound in the presence and absence of […] 5-HT.
In Table 2, the first column provides the example number of the compound evaluated while the second column provides the amount of test compound (expressed in nanomolar concentration) required to inhibit the binding of [^3 H]5-HT by 50% (indicated as IC50).

5-HT1A receptor = target: T2, 5-HT1A receptor (Rattus norvegicus, UniProt P19327); experiment: In vitro binding at the 5-HT1A receptor, inhibition of [3H]8-OH-DPAT binding to hippocampal membranes; parameters: species or system male Sprague-Dawley rats; settings: [3H]8-OH-DPAT (1.0 nM), 10 minutes at 37° C., pH 7.4
T2 construct: the brains were rapidly chilled and dissected to obtain the hippocampi; from tissue; host or cells: hippocampus of male Sprague-Dawley rats (membranes)
T2 sequence (P19327 1-422): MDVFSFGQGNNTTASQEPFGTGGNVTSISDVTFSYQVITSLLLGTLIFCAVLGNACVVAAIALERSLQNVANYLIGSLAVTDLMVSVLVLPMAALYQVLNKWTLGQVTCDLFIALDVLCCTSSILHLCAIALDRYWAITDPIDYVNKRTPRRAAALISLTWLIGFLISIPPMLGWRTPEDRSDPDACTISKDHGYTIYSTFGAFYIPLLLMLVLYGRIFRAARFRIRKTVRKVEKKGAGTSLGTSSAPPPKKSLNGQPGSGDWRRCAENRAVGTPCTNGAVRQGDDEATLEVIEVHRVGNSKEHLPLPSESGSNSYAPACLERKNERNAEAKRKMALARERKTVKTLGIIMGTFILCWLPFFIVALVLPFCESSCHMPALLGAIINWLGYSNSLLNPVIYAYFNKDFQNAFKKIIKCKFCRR
Experimental: The affinities of certain of the compounds of Formula 1 at the central 5-HT1A receptors were determined using a modification of the binding assay described by Taylor, et al., J. Pharmacol. Exp. Ther., 236, 118-125 (1986). Membranes for the binding assay were prepared from male Sprague-Dawley rats (150-250 g). The animals were killed by decapitation, and the brains were rapidly chilled and dissected to obtain the hippocampi. Membranes from the hippocampi were either prepared that day, or the hippocampi were stored frozen (-70° C.) until the day of preparation. The membranes were prepared by homogenizing the tissue in 40 volumes of ice-cold Tris-HCl buffer (50 mM, pH 7.4 at 22° C.) using a Techmar Tissumizer (setting 65 for 15 seconds), and the homogenate was centrifuged at 39800xg for 10 minutes. The resulting pellet was then resuspended in the same buffer, and the centrifugation and resuspension process was repeated three additional times to wash the membranes. Between the second and third washes the resuspended membranes were incubated for 10 minutes at 37° C. to facilitate the removal of endogenous ligands. The final pellet was resuspended in 67 mM Tris-HCl, pH 7.4, to a concentration of 2 mg of tissue original wet weight/200 μl. This homogenate was stored frozen (-70° C.) until the day of the binding assay. […] The assay tubes were incubated for 10 minutes at 37° C., and the contents were then rapidly filtered through GF/B filters (pretreated with 0.5% polyethylenimine), tollowed by four 1 ml washes with ice-cold buffer. The radioactivity trapped by the filters was quantitated by liquid scintillation spectometry, and specific [^3 H]8-OH-DPAT binding to the 5-HT1A sites was defined as the difference between [^3 H]8-OH-DPAT bound in the presence and absence of 10 μM 5-HT.
In Table 1, the first column provides the example number of the compound evaluated while the second column provides the amount of test compound (expressed in nanomolar concentration) required to inhibit the binding of [^3 H]8-OH-DPAT by 50% (indicated as IC50).

[1] = system: serotonin metabolite 5-hydroxyindole acetic acid (5HIAA); experiment: Effect on serotonin turnover in vivo, decrease of 5HIAA concentration in whole brain; parameters: species or system Male albino rats; settings: Rattus norvegicus, 1 h, rats, whole brain 5HIAA, one hour after dosing (generally a 15-20% decrease)
Experimental: In another experiment certain compounds of Formula 1 were evaluated to determine ability to affect serotonin turnover in vivo. As a measure of such affect on serotonin turnover, the decrease of the serotonin metabolite 5-hydroxyindole acetic acid (5HIAA) was measured. The following protocol was employed.
Male albino rats were injected either subcutaneously or orally with an aqueous solution of the compound tested. The pH of the solution was adjusted as necessary to solubilize the compound. A control of the solution without the test compound was similarly administered to a control animal. The rats were decapitated one hour later. The whole brain was then removed and frozen on dry ice for storage prior to analysis. 5-Hydroxyindole acetic acid (5HIAA) concentration in whole brain was measured by liquid chromatography with electrochemical detection as reported by Fuller and Perry, "Effects of Buspirone and its Metabolite, 1-(2-pyrimidinyi)piperazine, on Brain Monoamines and Their Metabolites in Rats", J. Pharmacol. Ext. Ther., 248, p. 50-56 (1989), incorporated herein by reference.
In Table III, Column 1 provides the Example No. of the compound tested while Column 2 provides the minimum effective dose (in mg/kg) required to produce a statistically significant decrease in 5HIAA concentration relative to control (generally a 15-20% decrease) for both oral and subcutaneous methods of administration.

[2] = po, p.o., read-out: Minimum Effective Dose (mg/kg) p.o., for a statistically significant decrease in 5HIAA concentration relative to control
[3] = sc, s.c., read-out: Minimum Effective Dose (mg/kg) s.c., for a statistically significant decrease in 5HIAA concentration relative to control

T1 sequence (F1MGM3 1-403): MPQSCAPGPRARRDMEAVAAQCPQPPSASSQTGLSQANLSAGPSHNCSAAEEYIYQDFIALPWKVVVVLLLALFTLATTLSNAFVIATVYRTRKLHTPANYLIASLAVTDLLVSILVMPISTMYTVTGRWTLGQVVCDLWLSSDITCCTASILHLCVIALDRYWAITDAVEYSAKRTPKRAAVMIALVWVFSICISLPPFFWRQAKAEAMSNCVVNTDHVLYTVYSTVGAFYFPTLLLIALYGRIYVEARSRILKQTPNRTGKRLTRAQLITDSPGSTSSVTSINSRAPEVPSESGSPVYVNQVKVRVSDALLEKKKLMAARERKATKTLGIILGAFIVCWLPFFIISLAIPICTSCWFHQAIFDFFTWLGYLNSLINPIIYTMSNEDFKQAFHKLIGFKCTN

Compound: CCCN(CCC)[C@@H]1Cc2c[nH]c3ccc(-c4ccon4)c(c23)C1 [Example 24, (+)(4S)-6-(3-isoxazoly)-4-(di-n-propylamino)-1,3,4,5-tetrahydrobenz[cd]indole]
- IC50 (5-HT1D receptor): 18.6 nM
- IC50 (5-HT1A receptor): 0.61 nM

Compound: CCCN(CCC)[C@H]1Cc2c[nH]c3ccc(-c4nc(-c5ccccc5)no4)c(c23)C1 [Example 30, (-)(4R)-6-(3-phenyl-1,2,4-oxadiazol-5-yl)-4-(di-n-propylamino)-1,3,4,5-tetrahydrobenz-[cd]indole]
- IC50 (5-HT1A receptor): 7.1 nM

Compound: CCCN(CCC)[C@H]1Cc2c[nH]c3ccc(-c4ncco4)c(c23)C1 [Example 31, (-)(4R)-6-(2-oxazolyl)-4-(di-n-propylamino)-1,3,4,5-tetrahydrobenz[cd]indole]
- IC50 (5-HT1D receptor): 280 nM
- minimal effective dose [1, 2]: 1 mg/kg
- minimal effective dose [1, 3]: 1 mg/kg
- IC50 (5-HT1A receptor): 2.77 nM

Compound: CCCN(CCC)[C@H]1Cc2c[nH]c3ccc(-c4nnc(-c5ccccc5)o4)c(c23)C1 [Example 35, (-)(4R)-6-(5-phenyl-1,3,4-oxadiazol-2-yl)-4-(di-n-propylamino)-1,3,4,5-tetrahydrobenz[cd]indole]
- minimal effective dose [1, 3]: > 1 mg/kg
- IC50 (5-HT1A receptor): 19 nM

Compound: CCCN(CCC)[C@H]1Cc2c[nH]c3ccc(-c4ccno4)c(c23)C1 [Example 26, (-)(4R)-6-(5-isoxazolyl)-4-(di-n-propylamino)-1,3,4,5-tetrahydrobenz[cd]indole]
- IC50 (5-HT1D receptor): 46.4 nM
- IC50 (5-HT1A receptor): 0.1 nM

Continued, in another order:

- IC50 (5-HT1D receptor): 29.4 nM
- IC50 (5-HT1A receptor): 0.87 nM
Compound: CCCN(CCC)[C@H]1Cc2c[nH]c3ccc(-c4cccnc4)c(c23)C1 [Example 33, (-)(4R)-6-(3-pyridyl)-4-(di-n-propylamino)-1,3,4,5-tetrahydrobenz[cd]indol]
- minimal effective dose [1, 2]: > 10 mg/kg
- minimal effective dose [1, 3]: 0.3 mg/kg

- IC50 (5-HT1D receptor): 74.4 nM
- IC50 (5-HT1A receptor): 0.53 nM
Compound: CCCN(CCC)[C@H]1Cc2c[nH]c3ccc(-c4cnco4)c(c23)C1 [Example 32, (-)(4R)-6-(5-oxazolyl)-4-(di-n-propylamino)-1,3,4,5-tetrahydrobenz[cd]indole]

- IC50 (5-HT1D receptor): 577 nM
- IC50 (5-HT1A receptor): 0.75 nM
Compound: CCCN(CCC)[C@H]1Cc2c[nH]c3ccc(-c4nnco4)c(c23)C1 [Example 34, (4R)-6-[2-(1,3,4-oxadiazolyl)]-4-(di-n-propylamino)-1,3,4,5-tetrahydrobenz[cd]indole]
- minimal effective dose [1, 2]: 10 mg/kg
- minimal effective dose [1, 3]: 0.1 mg/kg
